# Laboratory results taken from publication PMC6890839, “The Antimalarial Chloroquine Reduces the Burden of Persistent Atrial Fibrillation” (Frontiers in Pharmacology, 2019).
# System: T1, Kir3.1 and Kir3.4 (IKACh)
# T1 construct: gene KCNJ3; heterotetramer
# Test: whole-cell patch clamp, HEK293, block of Ba-sensitive current
# Assay type: cell-based
# Conditions: -140 mV step from -20 mV holding; about 24 °C; bath pH 7.4, 50 mM KCl; pipette 0.1 mM GTP; Hill slope -0.48
smiles,measurement,value
CCN(CC)CCCC(C)Nc1ccnc2cc(Cl)ccc12 (stereo not shown) [chloroquine],IC50,1200 nM
